From patent publication US5869476A, “Pyrimidinone derivatives” (Boryung Pharmaceutical Co., Ltd., priority 1994, dated 1999) come the findings set out here.

Each structure is given as a SMILES string. Some results are limits rather than exact numbers.

The first assay deals with T1, angiotensin II receptor (Oryctolagus cuniculus, UniProt P34976).
T1 construct: The aorta was cut into 3~4 mm to form ring samples; from tissue; host or cells: isolated aorta rings of New Zealand White rabbits
T1 sequence (P34976 1-359): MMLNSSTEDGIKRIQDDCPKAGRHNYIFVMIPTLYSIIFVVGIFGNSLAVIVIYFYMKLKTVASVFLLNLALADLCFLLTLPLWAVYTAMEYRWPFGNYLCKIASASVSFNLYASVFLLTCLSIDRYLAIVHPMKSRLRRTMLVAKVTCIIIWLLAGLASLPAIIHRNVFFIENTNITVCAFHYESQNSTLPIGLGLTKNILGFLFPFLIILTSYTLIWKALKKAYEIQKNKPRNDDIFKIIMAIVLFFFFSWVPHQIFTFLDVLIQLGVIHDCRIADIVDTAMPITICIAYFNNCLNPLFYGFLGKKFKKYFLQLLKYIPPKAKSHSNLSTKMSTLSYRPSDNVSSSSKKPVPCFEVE
The assay can be described thus: inhibition of angiotensin II induced contraction of isolated rabbit aorta rings. The settings on record: test compound incubated 20 minutes, 37° C., pH 7.4, read-out: IC50 (concentration being required to inhibit angiotensin II induced contraction by 50%). The class given is cell-based, New Zealand White rabbit. The procedure:
The antagonistic activity of the representative compounds of the invention was evaluated using the methodology describe below.
From New Zealand White rabbits (male or female, 2~2.5 kg), aorta was isolated, and fat and connected tissue were removed therefrom. The aorta was cut into 3~4 mm to form ring samples. The aorta sample was suspended in 20 ml of organ bath (37° C.) containing modified Krebs-Henseleit solution saturated with 95% O2 /5% CO2 (pH 7.4).
The aorta preparation was exposed consecutively to 2 g of tensile strength for 90 minutes intermittently washing the sample with 30 minutes interval and then to 30 mM of KCl to observe contraction response. After washing more than three times, the aorta preparation was again allowed to contract three times for stabilization by adding Angiotensin II ([…]) thereto with 30 minutes interval. The third contraction response to Angiotensin II was considered as control.
10 minutes after the third contraction, the test compound was administered to the aorta preparation, which was incubated for 20 minutes.
Comparing angiotensin II contraction curve obtained from the above inhibition test with that of the control, IC50 (concentration being required to inhibit angiotensin II induced contraction by 50%) was determined for each test compound(Table 1).
For `CCCCc1nc(C)c(CCC(=O)N2CC=CC2)c(=O)n1Cc1ccc(-c2ccccc2-c2nn[nH]n2)cc1` [Compound 61, 2-n-butyl-5-[2'-(3"-pyrrolino)carbonylethyl]-6-methyl-3-[[2'-(1H-tetrazol-5-yl)biphenyl-4-yl]methyl]-pyrimidin-4-(3H)-one], the IC50 worked out at 7.85 nM.

With `CCc1nc(C)c(CC(=O)N(CC)CC)c(=O)n1Cc1ccc(-c2ccccc2-c2nnn[nH]2)cc1` [Compound 4, 2-ethyl-5-diethylaminocarbonylmethyl-6-methyl-3-[[2'-(1H-tetrazol-5-yl)biphenyl-4-yl]methyl]-pyrimidin-4-(3H)-one], the IC50 worked out at 15.1 nM.

With `CCCCc1nc(C)c(CC(=O)N2CCCCCC2)c(=O)n1Cc1ccc(-c2ccccc2-c2nn[nH]n2)cc1` [Compound 56, 2-n-butyl-5-hexamethyleneiminocarbonylmethyl-6-methyl-3-[[2'-(1H-tetrazol-5-yl)biphenyl-4-yl]methyl]-pyrimidin-4-(3H)-one], the IC50 came out at 3.33 nM.

As for `CCCCc1nc(C)c(CC(=O)N2CCC[C@H]2C(=O)OC)c(=O)n1Cc1ccc(-c2ccccc2-c2nn[nH]n2)cc1` [Compound 42, 2-n-butyl-5-[(S)-2'-methoxycarbonylpyrrolidinocarbonylmethyl]-6-methyl-3-[[2'-(1H-tetrazol-5-yl)biphenyl-4-yl]methyl]-pyrimidin-4-(3H)-one], the IC50 was 2.06 nM.

For the molecule `CCCc1nc(C)c(CC(=O)N(CC)CC)c(=O)n1Cc1ccc(-c2ccccc2-c2nnn[nH]2)cc1` [Compound 12, 2-n-propyl-5-diethylaminocarbonylmethyl-6-methyl-3-[[2'-(1H-tetrazol-5-yl)biphenyl-4-yl]methyl]-pyrimidin-4-(3H)-one], the IC50 came out at 5.59 nM.

Take `CCCCc1nc(=O)c(CC(=O)OCC)c(C)n1Cc1ccc(-c2ccccc2-c2nnn[nH]2)cc1` [Compound 18, 2-n-butyl-5-ethoxycarbonylmethyl-6-methyl-1-[[2'-(1H-tetrazol-5-yl)biphenyl-4-yl]methyl]-pyrimidin-4-(1H)-one]: the IC50 was found to be 93.3 nM.

`CCCCc1nc(C)c(CC(=O)N2CCSC2)c(=O)n1Cc1ccc(-c2ccccc2-c2nn[nH]n2)cc1` [Compound 72, 2-n-butyl-5-thiazolidinocarbonylmethyl-6-methyl-3-[[2'-(1H-tetrazol-5-yl)biphenyl-4-yl]methyl]-pyrimidin-4-(3H)-one]: the IC50 was found to be 9.13 nM.

Regarding `CCCCc1nc(C)c(CC(=O)N2CCCCCCC2)c(=O)n1Cc1ccc(-c2ccccc2-c2nn[nH]n2)cc1` [Compound 57, 2-n-butyl-5-heptamethyleneiminocarbonylmethyl-6-methyl-3-[[2'-(1H-tetrazol-5-yl)biphenyl-4-yl]methyl]-pyrimidin-4-(3H)-one], the IC50 was 3.6 nM.

Turning to `CCCc1nc(=O)c(CCC(=O)O)c(C)n1Cc1ccc(-c2ccccc2-c2nn[nH]n2)cc1` [Compound 15, 2-n-propyl-5-(2'-carboxyethyl)-6-methyl-1-[[2'-(1H-tetrazol-5-yl)-biphenyl-4-yl]methyl]-pyrimidin-4-(1H)-one], the IC50 turned out to be 19.4 nM.

For the molecule `CCCc1nc(C)c(CC(=O)OCC)c(=O)n1Cc1ccc(-c2ccccc2-c2nnn[nH]2)cc1` [Compound 9, 2-n-propyl-5-ethoxycarbonylmethyl-6-methyl-3-[[2'-(1H-tetrazol-5-yl)biphenyl-4-yl]methyl]-pyrimidin-4-(3H)-one], the IC50 was 4.35 nM.

`CCCCc1nc(=O)c(CCC(=O)O)c(CCC)n1Cc1ccc(-c2ccccc2-c2nn[nH]n2)cc1` [Compound 37, 2-n-butyl-5-(2'-carboxyethyl)-6-propyl-1-[[2'-(1H-tetrazol-5-yl)-biphenyl-4-yl]methyl]-pyrimidin-4-(1H)-one]: the IC50 amounted to 115 nM.

Consider `CCCCc1nc(C)c(CC(=O)N(C)C)c(=O)n1Cc1ccc(-c2ccccc2-c2nnn[nH]2)cc1` [Compound 22, 2-n-butyl-5-dimethylaminocarbonylmethyl-6-methyl-3-[[2'-(1H-tetrazol-5-yl)biphenyl-4-yl]methyl]-pyrimidin-4-(3H)-one], for which the IC50 is 2.37 nM.

As for `CCCCc1nc(C)c(CC(=O)O)c(=O)n1Cc1ccc(-c2ccccc2C(=O)O)cc1` [Compound 39, 2-n-butyl-5-carboxymethyl-6-methyl-3-(2'-carboxybiphenyl-4-yl)methyl-pyrimidin-4-(3H)-one], the IC50 stood at 36.1 nM.

With `CCCCc1nc(C)c(CCCC(=O)OCC)c(=O)n1Cc1ccc(-c2ccccc2-c2nnn[nH]2)cc1` [Compound 29, 2-n-butyl-5-(3'-ethoxycarbonylpropyl)-6-methyl-3-[[2'-(1H-tetrazol-5-yl)biphenyl-4-yl]methyl]-pyrimidin-4-(3H)-one], the IC50 is 17 nM.

For `CCCCc1nc(C)c(CCC(=O)N2CCCCC2)c(=O)n1Cc1ccc(-c2ccccc2-c2nn[nH]n2)cc1` [Compound 62, 2-n-butyl-5-[2'-piperidinocarbonylethyl]-6-methyl-3-[[2'-(1H-tetrazol-5-yl)biphenyl-4-yl]methyl]-pyrimidin-4-(3H)-one], the IC50 came to 9.62 nM.

Take `CCCCc1nc(C)c(CC(=O)N2CCCCC2)c(=O)n1Cc1ccc(-c2ccccc2-c2nn[nH]n2)cc1` [Compound 45, 2-n-butyl-5-piperidinocarbonylmethyl-6-methyl-3-[[2'-(1H-tetrazol-5-yl)biphenyl-4-yl]methyl]-pyrimidin-4-(3H)-one]: the IC50 was 2.46 nM.

`CCCc1nc(=O)c(CC(=O)O)c(C)n1Cc1ccc(-c2ccccc2-c2nnn[nH]2)cc1` [Compound 11, 2-n-propyl-5-carboxymethyl-6-methyl-1-[[2'-(1H-tetrazol-5-yl)-biphenyl-4-yl]methyl]-pyrimidin-4-(1H)-one]: the IC50 was 7.71 nM.

For the molecule `CCCCc1nc(C)c(CC(=O)N2CCSCC2)c(=O)n1Cc1ccc(-c2ccccc2-c2nn[nH]n2)cc1` [Compound 75, 2-n-butyl-5-thiomorpholinocarbonylmethyl-6-methyl-3-[[2'-(1H-tetrazol-5-yl)biphenyl-4-yl]methyl]-pyrimidin-4-(3H)-one], the IC50 worked out at 2.76 nM.

In the case of `CCCCc1nc(=O)c(CCC(=O)O)c(C)n1Cc1ccc(-c2ccccc2-c2nnn[nH]2)cc1` [Compound 26, 2-n-butyl-5-(2'-carboxyethyl)-6-methyl-1-[[2'-(1H-tetrazol-5-yl)-biphenyl-4-yl]methyl]-pyrimidin-4-(1H)-one], the IC50 was 42.8 nM.

For `CCCCc1nc(C)c(CCC(=O)N2CCC[C@H]2C(N)=O)c(=O)n1Cc1ccc(-c2ccccc2-c2nn[nH]n2)cc1` [Compound 60, 2-n-butyl-5-[2'-((S)-2"-aminocarbonylpyrrolidino)carbonylethyl]-6-methyl-3-[[2'-(1H-tetrazol-5-yl)biphenyl-4-yl]methyl]-pyrimidin-4-(3H)-one], the IC50 was determined as 2.88 nM.

In the case of `CCCCc1nc(C)c(CCC(=O)N2CCCC(C)(C)C2)c(=O)n1Cc1ccc(-c2ccccc2-c2nn[nH]n2)cc1` [Compound 65, 2-n-butyl-5-[2'-(3",3"-dimethylpiperidino)carbonylethyl]-6-methyl-3-[[2'-(1H-tetrazol-5-yl)biphenyl-4-yl]methyl]-pyrimidin-4-(3H)-one], the IC50 was found to be 7.6 nM.

Regarding `CCCCc1nc(C)c(CC(=O)N2CCN(C(C)=O)CC2)c(=O)n1Cc1ccc(-c2ccccc2-c2nn[nH]n2)cc1` [Compound 77, 2-n-butyl-5-(4'-acetylpiperazinocarbonylmethyl)-6-methyl-3-[[2'-(1H-tetrazol-5-yl)biphenyl-4-yl]methyl]-pyrimidin-4-(3H)-one], the IC50 is 2.17 nM.

In the case of `CCCCc1nc(C)c(CCC(=O)N2CCC(Cc3ccccc3)CC2)c(=O)n1Cc1ccc(-c2ccccc2-c2nn[nH]n2)cc1` [Compound 63, 2-n-butyl-5-[2'-(4"-benzylpiperidino)carbonylethyl]-6-methyl-3-[[2'-(1H -tetrazol-5-yl)biphenyl-4-yl]methyl]-pyrimidin-4-(3H)-one], the IC50 turned out to be 302 nM.

Regarding `CCCCc1nc(C)c(CCC(=O)N2CCCC(C(=O)N(CC)CC)C2)c(=O)n1Cc1ccc(-c2ccccc2-c2nn[nH]n2)cc1` (stereo not shown) [Compound 69, 2-n-butyl-5-[2'-(3"-diethylaminocarbonylpiperidino)carbonylethyl]-6-methyl-3-[[2'-(1H-tetrazol-5-yl)biphenyl-4-yl]methyl]-pyrimidin-4-(3H)-one], the IC50 is 10.7 nM.

Staying with this assay, now noted: test compound incubated 20 minutes, value given in M, read-out: IC50 (concentration being required to inhibit angiotensin II induced contraction by 50%).
For `CCCCc1nc(C)c(CC(=O)N2CCC(C)CC2)c(=O)n1Cc1ccc(-c2ccccc2-c2nn[nH]n2)cc1` [Compound 48, 2-n-butyl-5-(4'-methylpiperidinocarbonylmethyl)-6-methyl-3-[[2'-(1H-tetrazol-5-yl)biphenyl-4-yl]methyl]-pyrimidin-4-(3H)-one], the IC50 is > 10000 nM.
